Tests used:
[1] = target: T1, recombinant human DHODH (Homo sapiens, UniProt Q02127); test: Kinetic DHODH enzyme assay (3,4-dimethoxy-5-methyl-p-benzoquinone, DCIP); format: biochemical; parameters: made in house; settings: Fig. 5a; average of three independent repeats ± SD
Procedure: In Fig. 5a enzyme assays were optimized and performed with 6 nM recombinant human DHODH prepared as described. The reaction mixture for these kinetic assays consisted of 1 mM DL-dihydroorotic acid, 100 µM 3,4-dimethoxy-5-methyl-p-benzoquinone (#D9150, Sigma-Aldrich), and 100 µM DCIP in enzyme buffer. A stock solution of 20 mM DCIP was prepared in enzyme buffer and filtered through filter paper (20–25 μm pore size) just before use. Loss in absorbance by DCIP was measured at 595 nm at RT in a stepped time course (8 × 2 min, 8 × 3 min, 6 × 5 min). […] Therefore, for each concentration of inhibitor tested, a value for DHODH’s Vmax was estimated by linear regression within this time frame.
Target sequence in this assay (Q02127 29-395 limits assumed): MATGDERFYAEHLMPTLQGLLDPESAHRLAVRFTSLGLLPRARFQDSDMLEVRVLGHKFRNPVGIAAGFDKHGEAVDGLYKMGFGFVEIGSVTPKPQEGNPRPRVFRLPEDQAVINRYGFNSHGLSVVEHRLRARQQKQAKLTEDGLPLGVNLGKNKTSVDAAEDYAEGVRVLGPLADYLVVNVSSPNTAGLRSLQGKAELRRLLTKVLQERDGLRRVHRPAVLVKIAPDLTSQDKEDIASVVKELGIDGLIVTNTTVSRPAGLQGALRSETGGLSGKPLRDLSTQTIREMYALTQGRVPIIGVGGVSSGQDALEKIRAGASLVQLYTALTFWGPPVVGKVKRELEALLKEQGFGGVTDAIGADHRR

[2] = test system: ARN8 cells; test: SRB growth/viability assay, ARN8; format: cell-based, human; settings: ARN8; Fig. 4e
Procedure: SRB assays measuring protein content were performed in 96-well plates as previously described.

[3] = test system: ARN8 cells; test: Giemsa staining of ARN8 cultures (uridine, orotic acid, dihydroorotic acid supplementation); format: cell-based, human; settings: 72 h, 2.5 or 5 μM uridine, serum replacement medium
Procedure: Additionally, ARN8 cells were treated for 16 h and p53-dependent transcription was measured by CPRG assay. Values correspond to the average of three technical repeats ± SD. c Simplified description of the pyrimidine nucleotide de novo (blue) and salvage (black) pathways. d ARN8 cells were seeded in FBS supplemented DMEM with a change to serum replacement medium 24 h post seeding. […] Values correspond to the average of three technical repeats ± SD. f ARN8 cells were seeded in FBS supplemented DMEM with a change to serum replacement medium 24 h post seeding.

[4] = target: CDK4/CycD3 (Homo sapiens, UniProt P11802); test: biochemical; parameters: radiometric 33PanQinase protein kinase activity assay, CDK/cyclin panel, per cent remaining activity; settings: read-out: (R)-HZ00 10 µM Average (% remaining activity)
Text: (§1) Supplementary Table 1. In vitro inhibition (% remaining activity) of cyclin-dependent
(§2) ProQinase GmbH (Freiburg, Germany) using a radiometric protein kinase assay
(§3) (33PanQinase® Activity Assay).
(§4) (1 picture or pasted object on this page, not shown here) 32 Supplementary Table 1. In vitro inhibition (% remaining activity) of cyclin-dependent kinases (CDKs).

[5] = target: T2, CDK5/p35NCK (Homo sapiens, UniProt Q00535); test: biochemical; parameters: radiometric 33PanQinase protein kinase activity assay, CDK/cyclin panel, per cent remaining activity; settings: read-out: (R)-HZ00 10 µM Average (% remaining activity)
T2 construct: p35
Text: as §1, §2, §3, §4

[6] = target: CDK1/CycE1 (Homo sapiens, UniProt P06493); test: biochemical; parameters: radiometric 33PanQinase protein kinase activity assay, CDK/cyclin panel, per cent remaining activity; settings: read-out: (R)-HZ00 10 µM Average (% remaining activity)
Text: as §1, §2, §3, §4

[7] = target: CDK9/CycK (Homo sapiens, UniProt P50750); test: biochemical; parameters: radiometric 33PanQinase protein kinase activity assay, CDK/cyclin panel, per cent remaining activity; settings: read-out: (R)-HZ00 10 µM Average (% remaining activity)
Text: as §1, §2, §3, §4

[8] = target: T3, CDK5/p25NCK (Homo sapiens, UniProt Q00535); test: biochemical; parameters: radiometric 33PanQinase protein kinase activity assay, CDK/cyclin panel, per cent remaining activity; settings: read-out: (R)-HZ00 10 µM Average (% remaining activity)
T3 construct: p25
Text: as §1, §2, §3, §4

[9] = target: CDK7/CycH/MAT1 (Homo sapiens, UniProt P50613); test: biochemical; parameters: radiometric 33PanQinase protein kinase activity assay, CDK/cyclin panel, per cent remaining activity; settings: read-out: (R)-HZ00 10 µM Average (% remaining activity)
Text: as §1, §2, §3, §4

[10] = target: CDK8/CycC (Homo sapiens, UniProt P49336); test: biochemical; parameters: radiometric 33PanQinase protein kinase activity assay, CDK/cyclin panel, per cent remaining activity; settings: read-out: (R)-HZ00 10 µM Average (% remaining activity)
Text: as §1, §2, §3, §4

[11] = target: CDK2/CycA2 (Homo sapiens, UniProt P24941); test: biochemical; parameters: radiometric 33PanQinase protein kinase activity assay, CDK/cyclin panel, per cent remaining activity; settings: read-out: (R)-HZ00 10 µM Average (% remaining activity)
Text: as §1, §2, §3, §4

[12] = target: CDK1/CycB1 (Homo sapiens, UniProt P06493); test: biochemical; parameters: radiometric 33PanQinase protein kinase activity assay, CDK/cyclin panel, per cent remaining activity; settings: read-out: (R)-HZ00 10 µM Average (% remaining activity)
Text: as §1, §2, §3, §4

[13] = target: CDK3/CycE1 (Homo sapiens, UniProt Q00526); test: biochemical; parameters: radiometric 33PanQinase protein kinase activity assay, CDK/cyclin panel, per cent remaining activity; settings: read-out: (R)-HZ00 10 µM Average (% remaining activity)
Text: as §1, §2, §3, §4

[14] = target: CDK9/CycT1 (Homo sapiens, UniProt P50750); test: biochemical; parameters: radiometric 33PanQinase protein kinase activity assay, CDK/cyclin panel, per cent remaining activity; settings: read-out: (R)-HZ00 10 µM Average (% remaining activity)
Text: as §1, §2, §3, §4

[15] = target: T4, PCTAIRE1/CycY (Homo sapiens, UniProt Q00536); test: biochemical; parameters: radiometric 33PanQinase protein kinase activity assay, CDK/cyclin panel, per cent remaining activity; settings: read-out: (R)-HZ00 10 µM Average (% remaining activity)
T4 construct: gene CDK16
Text: as §1, §2, §3, §4

[16] = target: CDK6/CycD1 (Homo sapiens, UniProt Q00534); test: biochemical; parameters: radiometric 33PanQinase protein kinase activity assay, CDK/cyclin panel, per cent remaining activity; settings: read-out: (R)-HZ00 10 µM Average (% remaining activity)
Text: as §1, §2, §3, §4

[17] = target: CDK2/CycE1 (Homo sapiens, UniProt P24941); test: biochemical; parameters: radiometric 33PanQinase protein kinase activity assay, CDK/cyclin panel, per cent remaining activity; settings: read-out: (R)-HZ00 10 µM Average (% remaining activity)
Text: as §1, §2, §3, §4

[18] = target: CDK1/CycA2 (Homo sapiens, UniProt P06493); test: biochemical; parameters: radiometric 33PanQinase protein kinase activity assay, CDK/cyclin panel, per cent remaining activity; settings: read-out: (R)-HZ00 10 µM Average (% remaining activity)
Text: as §1, §2, §3, §4

[19] = target: CDK4/CycD1 (Homo sapiens, UniProt P11802); test: biochemical; parameters: radiometric 33PanQinase protein kinase activity assay, CDK/cyclin panel, per cent remaining activity; settings: read-out: (R)-HZ00 10 µM Average (% remaining activity)
Text: as §1, §2, §3, §4

[20] = test system: p53-dependent transcription in ARN8 human melanoma cells; test: p53-dependent transcription reporter (CPRG assay) in ARN8 cells; format: cell-based; settings: ARN8, 16 h
Procedure: A 20,000 compound library was purchased from ChemBridge consisting of 10,000 from the DIVERSet and 10,000 from the CombiSet libraries. […] A total of 30,000 additional compounds from the ChemBridge DIVERSet that were previously screened in a T22 cell background[12] were re-screened in ARN8 cells at 5 µM. The ChemBridge codes for these compounds can be made available upon request. All chemical synthesis is detailed in Supplementary Information with NMR spectra and reaction schemes detailed in Supplementary Figs. 13–19.

[21] = test system: ARN8 xenograft; test: ARN8 subcutaneous xenograft; format: in vivo
Procedure: All animal xenograft experiments were approved by the Norwegian Animal Research Authority and conducted according to The European Convention for the Protection of Vertebrates Used for Scientific Purposes. […] The health status and weight of the mice were monitored daily and they were randomized in a non-blinded manner into 4 groups when tumor volumes reached 30–40 mm^3. […] Tumor volumes were measured every second day by a digital caliper using the following ellipsoid formula: Volume = π (length × width × height)/6.
To determine the efficacy of (R)-HZ05 in combination with nutlin-3a, 4 groups of NSG mice (n = 8 per group) were subcutaneously injected in the flank region with a single 100 μL injection of 2 × 10^6 ARN8 cells in a solution of PBS:Matrigel (volume ratio 3:1). Treatment was initiated when tumors reached ~50 mm^3. The maximum tolerated dose for this combination of drugs was previously determined for the strain we used. The endpoint of the experiment was determined by the tumor size ([…]) weight loss, and general condition of the mice according to The Norwegian Animal Research Authority.

[22] = target: T1, recombinant human DHODH; test: Endpoint DHODH enzyme assay (coenzyme Q10, DCIP); format: biochemical; parameters: purchased Prospecbio ENZ-642; settings: compound at 10 µM
Procedure: In Supplementary Tables 5 and 6, endpoint assays were performed with 10 nM recombinant human DHODH (#ENZ-642, Prospecbio). The reaction mixture consisted of 624.6 µM DL-dihydroorotic acid, 66.4 µM coenzyme Q10, 66.4 µM 2,6-dichlorophenolindophenol sodium salt (DCIP) (all reagents purchased from Sigma-Aldrich) in enzyme buffer (50 mM Tris-HCl, pH 8.0, 0.1% Triton X-100, 150 mM KCl). Loss in absorbance by DCIP was measured at 595 nm after incubation at RT for 60 min.
Target sequence in this assay (Q02127 31-395 limits assumed): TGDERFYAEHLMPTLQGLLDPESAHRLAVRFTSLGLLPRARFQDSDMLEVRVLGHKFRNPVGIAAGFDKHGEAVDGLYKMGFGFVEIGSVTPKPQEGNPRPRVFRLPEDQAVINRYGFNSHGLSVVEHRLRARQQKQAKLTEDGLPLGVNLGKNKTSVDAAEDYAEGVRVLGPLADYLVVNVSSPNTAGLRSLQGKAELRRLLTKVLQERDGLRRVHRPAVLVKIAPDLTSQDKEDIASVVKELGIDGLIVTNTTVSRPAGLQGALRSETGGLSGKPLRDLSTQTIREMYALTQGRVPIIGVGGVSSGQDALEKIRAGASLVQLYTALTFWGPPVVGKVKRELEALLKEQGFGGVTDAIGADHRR

[23] = Supplementary Table 6, 30,000 compound library
[24] = Supplementary Table 5, 20,000 compound library

CDK6/CycD1, sequence (Q00534 whole entry): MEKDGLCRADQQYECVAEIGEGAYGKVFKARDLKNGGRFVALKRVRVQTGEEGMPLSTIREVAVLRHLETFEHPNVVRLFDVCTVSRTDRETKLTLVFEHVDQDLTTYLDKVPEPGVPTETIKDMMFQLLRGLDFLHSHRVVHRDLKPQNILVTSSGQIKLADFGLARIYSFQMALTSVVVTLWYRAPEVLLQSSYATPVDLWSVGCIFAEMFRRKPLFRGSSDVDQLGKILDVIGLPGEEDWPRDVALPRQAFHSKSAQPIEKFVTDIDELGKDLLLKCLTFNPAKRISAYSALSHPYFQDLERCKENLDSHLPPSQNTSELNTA
CDK6/CycD1, sequence (P24385 whole entry partner): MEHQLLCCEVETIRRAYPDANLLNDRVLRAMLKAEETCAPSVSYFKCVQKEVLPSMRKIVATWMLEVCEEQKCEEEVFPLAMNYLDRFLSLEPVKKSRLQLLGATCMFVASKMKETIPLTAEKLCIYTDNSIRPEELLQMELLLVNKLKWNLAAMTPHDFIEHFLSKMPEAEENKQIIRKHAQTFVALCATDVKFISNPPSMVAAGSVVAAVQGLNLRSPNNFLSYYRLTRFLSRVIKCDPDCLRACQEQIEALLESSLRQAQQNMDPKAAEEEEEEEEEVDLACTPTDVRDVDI
CDK9/CycT1, sequence (P50750 whole entry): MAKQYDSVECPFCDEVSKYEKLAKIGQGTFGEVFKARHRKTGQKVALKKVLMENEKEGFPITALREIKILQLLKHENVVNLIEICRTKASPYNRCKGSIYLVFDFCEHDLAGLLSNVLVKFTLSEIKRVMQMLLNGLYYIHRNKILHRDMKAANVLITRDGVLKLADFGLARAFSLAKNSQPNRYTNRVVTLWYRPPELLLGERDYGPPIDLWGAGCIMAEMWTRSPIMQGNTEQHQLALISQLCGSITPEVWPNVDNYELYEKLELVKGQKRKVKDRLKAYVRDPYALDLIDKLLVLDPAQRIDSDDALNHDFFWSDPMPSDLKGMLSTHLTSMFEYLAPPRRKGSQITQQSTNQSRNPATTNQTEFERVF
CDK9/CycT1, sequence (O60563 whole entry partner): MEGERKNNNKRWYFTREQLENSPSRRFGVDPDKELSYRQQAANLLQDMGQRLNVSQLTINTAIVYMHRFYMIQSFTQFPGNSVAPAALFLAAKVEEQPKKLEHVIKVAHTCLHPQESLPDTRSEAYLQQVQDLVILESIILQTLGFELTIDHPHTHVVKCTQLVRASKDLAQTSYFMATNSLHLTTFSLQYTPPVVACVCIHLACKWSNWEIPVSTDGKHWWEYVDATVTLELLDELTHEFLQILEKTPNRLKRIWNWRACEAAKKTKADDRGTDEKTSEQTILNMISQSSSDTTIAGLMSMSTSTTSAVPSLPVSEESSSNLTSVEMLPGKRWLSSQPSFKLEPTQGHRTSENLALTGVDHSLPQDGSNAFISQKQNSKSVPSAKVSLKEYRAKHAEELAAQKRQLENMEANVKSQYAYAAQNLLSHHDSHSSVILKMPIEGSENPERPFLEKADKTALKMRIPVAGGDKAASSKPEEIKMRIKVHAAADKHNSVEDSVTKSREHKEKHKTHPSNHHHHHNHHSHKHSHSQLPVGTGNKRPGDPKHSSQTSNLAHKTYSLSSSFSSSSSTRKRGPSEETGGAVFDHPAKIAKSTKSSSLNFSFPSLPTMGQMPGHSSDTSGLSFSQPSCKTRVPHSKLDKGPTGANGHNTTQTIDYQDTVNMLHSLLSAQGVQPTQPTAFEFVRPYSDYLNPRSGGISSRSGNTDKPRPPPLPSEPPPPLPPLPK
CDK9/CycK, sequence (P50750 whole entry): as the sequence (P50750 whole entry) above
CDK9/CycK, sequence (O75909 whole entry partner): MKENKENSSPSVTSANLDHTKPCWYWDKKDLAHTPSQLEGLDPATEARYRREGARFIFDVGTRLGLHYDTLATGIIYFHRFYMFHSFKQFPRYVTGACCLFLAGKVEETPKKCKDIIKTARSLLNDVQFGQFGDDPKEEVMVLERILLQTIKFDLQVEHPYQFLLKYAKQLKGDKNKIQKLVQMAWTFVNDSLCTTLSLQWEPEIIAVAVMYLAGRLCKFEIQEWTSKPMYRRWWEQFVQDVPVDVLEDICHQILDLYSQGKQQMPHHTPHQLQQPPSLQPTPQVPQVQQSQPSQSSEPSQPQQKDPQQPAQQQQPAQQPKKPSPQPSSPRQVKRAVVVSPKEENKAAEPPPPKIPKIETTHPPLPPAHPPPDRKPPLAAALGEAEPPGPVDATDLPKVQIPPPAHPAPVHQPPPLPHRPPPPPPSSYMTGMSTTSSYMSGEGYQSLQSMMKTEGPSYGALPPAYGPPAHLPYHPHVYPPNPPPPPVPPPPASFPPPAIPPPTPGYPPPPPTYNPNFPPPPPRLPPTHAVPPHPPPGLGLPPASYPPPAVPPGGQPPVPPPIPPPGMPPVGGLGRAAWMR
T4 sequence (Q00536 whole entry): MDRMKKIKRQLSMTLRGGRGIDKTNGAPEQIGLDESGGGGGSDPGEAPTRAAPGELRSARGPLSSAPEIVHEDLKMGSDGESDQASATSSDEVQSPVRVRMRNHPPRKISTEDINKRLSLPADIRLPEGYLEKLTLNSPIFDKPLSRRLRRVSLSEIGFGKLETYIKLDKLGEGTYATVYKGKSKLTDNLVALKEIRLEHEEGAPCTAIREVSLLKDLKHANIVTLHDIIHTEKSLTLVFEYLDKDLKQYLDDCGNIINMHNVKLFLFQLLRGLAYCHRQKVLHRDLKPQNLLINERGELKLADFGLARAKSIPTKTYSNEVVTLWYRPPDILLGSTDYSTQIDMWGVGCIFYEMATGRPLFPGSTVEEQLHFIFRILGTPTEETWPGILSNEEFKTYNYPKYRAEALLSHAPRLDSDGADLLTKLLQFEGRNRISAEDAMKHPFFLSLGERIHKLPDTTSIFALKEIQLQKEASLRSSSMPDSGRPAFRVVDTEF
T4 sequence (Q8ND76 whole entry partner): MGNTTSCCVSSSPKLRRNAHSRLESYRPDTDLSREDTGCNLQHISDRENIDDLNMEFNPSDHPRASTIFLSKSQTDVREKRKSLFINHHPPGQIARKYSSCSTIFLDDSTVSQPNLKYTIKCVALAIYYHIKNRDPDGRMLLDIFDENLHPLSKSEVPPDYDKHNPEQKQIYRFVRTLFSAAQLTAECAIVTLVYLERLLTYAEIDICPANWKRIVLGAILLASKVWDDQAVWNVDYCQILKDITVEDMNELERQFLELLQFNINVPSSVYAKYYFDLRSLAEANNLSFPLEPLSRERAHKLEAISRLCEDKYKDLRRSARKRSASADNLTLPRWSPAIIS
CDK3/CycE1, sequence (Q00526 whole entry): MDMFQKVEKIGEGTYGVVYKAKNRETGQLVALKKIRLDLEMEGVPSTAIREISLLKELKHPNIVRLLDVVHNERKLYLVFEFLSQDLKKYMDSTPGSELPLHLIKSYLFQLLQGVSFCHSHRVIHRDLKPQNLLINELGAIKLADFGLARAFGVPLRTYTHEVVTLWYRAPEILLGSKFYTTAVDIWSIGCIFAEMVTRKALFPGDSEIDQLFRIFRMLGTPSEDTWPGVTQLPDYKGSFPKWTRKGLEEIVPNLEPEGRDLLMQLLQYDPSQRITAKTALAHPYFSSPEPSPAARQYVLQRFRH
CDK3/CycE1, sequence (P24864 whole entry partner): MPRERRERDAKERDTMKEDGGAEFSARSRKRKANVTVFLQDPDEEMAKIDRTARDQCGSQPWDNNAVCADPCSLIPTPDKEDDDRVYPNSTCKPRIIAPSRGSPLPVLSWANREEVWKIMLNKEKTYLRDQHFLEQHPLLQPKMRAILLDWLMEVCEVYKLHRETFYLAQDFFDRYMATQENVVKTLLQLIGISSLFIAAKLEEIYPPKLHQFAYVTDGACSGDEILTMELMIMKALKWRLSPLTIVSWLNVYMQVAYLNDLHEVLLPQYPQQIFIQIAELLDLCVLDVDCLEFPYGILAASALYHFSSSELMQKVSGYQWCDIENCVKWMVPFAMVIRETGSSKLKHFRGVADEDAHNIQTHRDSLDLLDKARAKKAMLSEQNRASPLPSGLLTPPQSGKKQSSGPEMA

SMILES: O=C(N[C@H]1CCCc2c1cnn2-c1ccccc1F)c1onc2c1CCCC2 [(S)-HZ05]
- IC50 [1]: 6.7 ± 0.67 µM

SMILES: Cc1ccc(-n2ncc3c2CC(C)(C)CC3NC(=O)c2ccccn2)cc1 (centres unmarked) [HZ25]
- IC50 [1]: > 10 µM

SMILES: O=C(NC1CCCc2c1cnn2-c1ccc(F)cc1F)c1onc2c1CCCC2 (centres unmarked) [HZ02]
- IC50 [1]: 0.289 ± 0.046 µM

SMILES: Cc1c(-c2ccc(-c3ccccc3F)cc2)nc2ccc(F)cc2c1C(=O)O [brequinar, reference compound]
- effects on ARN8 growth and p53-dependent transcription ± uridine compared with HZ00 [2]: phenocopied the effects of HZ00

SMILES: O=C(N[C@@H]1CCCc2c1cnn2-c1ccccc1F)c1ccccn1 [(R)-HZ00]
- tumor cell growth at physiological uridine levels [3]: markedly reduce tumor cell growth
- remaining activity at 10 µM [4]: 98.3%
- remaining activity at 10 µM [5]: 101%
- remaining activity at 10 µM [6]: 103%
- remaining activity at 10 µM [7]: 95.9%
- remaining activity at 10 µM [8]: 113%
- remaining activity at 10 µM [9]: 105%
- remaining activity at 10 µM [10]: 92.4%
- remaining activity at 10 µM [11]: 101%
- remaining activity at 10 µM [12]: 100%
- remaining activity at 10 µM [13]: 90.8%
- remaining activity at 10 µM [14]: 107%
- remaining activity at 10 µM [15]: 95.4%
- remaining activity at 10 µM [16]: 97.1%
- remaining activity at 10 µM [17]: 96.8%
- remaining activity at 10 µM [18]: 90.9%
- remaining activity at 10 µM [19]: 104%
- p53 reporter activity, (R)- versus (S)-enantiomer [20]: significantly higher p53 reporter activity
- xenograft tumor growth, combination with nutlin-3 ([21]; (R)-HZ00 150 mg kg−1 i.p. q.d. + nutlin-3 100 mg kg−1 p.o. q.d.): significant ARN8 xenograft tumor growth inhibition
- toxicity in xenograft study ([21]; mice, (R)-HZ00 150 mg kg−1 i.p. q.d., nutlin-3 100 mg kg−1 p.o. q.d.): not toxic

SMILES: C/C(O)=C(\C#N)C(=O)Nc1ccc(C(F)(F)F)cc1 [teriflunomide, reference compound]
- effects on ARN8 growth and p53-dependent transcription ± uridine compared with HZ00 [2]: phenocopied the effects of HZ00

SMILES: CCOc1ccc(S(=O)(=O)Nc2cc(Br)c3oc(C)c(C(C)=O)c3c2)cc1 [compound 5754791, N-(3-acetyl-7-bromo-2-methyl-1-benzofuran-5-yl)-4-ethoxybenzenesulfonamide]
- remaining activity at 10 µM [22, 23]: 96.8%

SMILES: Cc1ccc(C=NNC(=O)c2c(C)nc3ccc(Cl)cn23)cc1 [compound 5378429, 6-chloro-2-methyl-N'-(4-methylbenzylidene)imidazo[1,2-a]pyridine-3-carbohydrazide]
- remaining activity at 10 µM [22, 23]: 100%

SMILES: NC(=O)c1ccccc1NC(=O)Nc1ccccc1C(F)(F)F [compound 7794325, 2-[({[2-(trifluoromethyl)phenyl]amino}carbonyl)amino]benzamide]
- remaining activity at 10 µM [22, 24]: 92.2%

SMILES: CCOc1ccc(NC(=S)NC(=O)c2ccc(C(C)(C)C)cc2)cc1 [compound 6501326, 4-tert-butyl-N-{[(4-ethoxyphenyl)amino]carbonothioyl}benzamide]
- remaining activity at 10 µM [22, 23]: 84.1%

SMILES: COc1ccc(Cl)cc1NC1=C(Cl)C(=O)N(c2cccc(C)c2C)C1=O [compound 6149306, 3-chloro-4-[(5-chloro-2-methoxyphenyl)amino]-1-(2,3-dimethylphenyl)-1H-pyrrole-2,5-dione]
- remaining activity at 10 µM [22, 23]: 99.6%

SMILES: NC(=O)c1ccccc1N=Cc1cccc(Cl)c1 [compound 5321611, 2-[(3-chlorobenzylidene)amino]benzamide]
- remaining activity at 10 µM [22, 23]: 97.6%

SMILES: CCc1cccc(C)c1NC(=O)CSc1nc2ccccc2c(=O)n1-c1cccc2ccccc12 [compound 7638934, N-(2-ethyl-6-methylphenyl)-2-{[3-(1-naphthyl)-4-oxo-3,4-dihydro-2-quinazolinyl]thio}acetamide]
- remaining DHODH activity (%) Average [22, 24]: 72.65%

SMILES: COc1ccccc1N1C(=O)C(=C2C(=O)Nc3ccc(Br)cc32)SC1=S [compound 5284467, 5-bromo-3-[3-(2-methoxyphenyl)-4-oxo-2-thioxo-1,3-thiazolidin-5-ylidene]-1,3-dihydro-2H-indol-2-one]
- remaining DHODH activity (%) Average [22, 23]: 98.93%

SMILES: CCN(CC)c1ccc(-c2nc(-c3cccc(OC)c3OC)no2)cn1 [compound 57235883, 5-[3-(2,3-dimethoxyphenyl)-1,2,4-oxadiazol-5-yl]-N,N-diethyl-2-pyridinamine]
- remaining activity at 10 µM [22, 24]: 9.4%

SMILES: CCOC(=O)c1c(-c2ccccc2)csc1NC(=O)c1cc(OC)c(OC)c(OC)c1 [compound 5264537, ethyl 4-phenyl-2-[(3,4,5-trimethoxybenzoyl)amino]-3-thiophenecarboxylate]
- remaining activity at 10 µM [22, 24]: 82.9%

Reference: publication PMC5856786, “A DHODH inhibitor increases p53 synthesis and enhances tumor cell killing by p53 degradation blockage” (Nature Communications, 2018)
